Reference: patent US9120780B2, “Indole or indazole derivative or salt thereof” (TAIHO PHARMACEUTICAL CO., LTD., priority 2011, dated 2015)

Key:
[1] = molecular target: human HSP90 alpha protein (N-terminal, amino acids 2-236) (Homo sapiens (Human), UniProt P07900); assay: Measurement of HSP90-binding activity (AlphaScreen competitive assay, biotin-labeled geldanamycin); settings: inhibition of biotin-labeled geldanamycin binding to purified HSP90; read-out: HSP-binding activity IC50
Protocol: First, a solution of purified HSP90 was prepared as follows. […] The pET-HSP90N was introduced into Escherichia coli cells (BL21 (DE3), Stratagene Inc.), and then the Escherichia coli cells were cultured in the presence of 0.5 mM isopropyl-beta-D-thiogalactopyranoside (Sigma-Aldrich Corp.) at 37° C. for 4 hours. The Escherichia coli cells were collected, suspended in a lysis buffer (50 mM Tris-HCl (pH 7.5), 200 mM NaCl), and sonicated. The sonicated cell solution was centrifuged (40,000×g, 20 minutes) to obtain supernatant as a crude extract. The crude extract was fractionated by Ni Sepharose High Performance (GE Healthcare Japan Corporation) chromatography and HiLoad 26/60 Superdex 75 pg (GE Healthcare Japan Corporation), and the fraction in which HSP90 protein was concentrated was prepared so as to be a 50 mM Tris-HCl (pH 7.5)/20% glycerol solution as a purified HSP90 solution. The purified HSP90 solution was divided and stored at −80° C. until use.
The HSP90-binding activity was measured by an AlphaScreen competitive assay system. […] After reaction at room temperature for 2 hours, biotin-labeled geldanamycin was added to each reaction solution in an amount of 40 nM, followed by reaction for further 1 hour. […] After reaction in a dark place at room temperature for 1 hour, the fluorescence intensity in each well was measured with a multilabel plate reader, EnVision (Perkin Elmer, Inc.). The inhibition rate (%) of biotin-labeled geldanamycin binding by a compound of the present invention was determined by the following equation using the fluorescence signal of a test substance-free group (control) as a control. […] Inhibition rate (%)=(C−T)/C×100 T: signal in a well to which a test substance was added C: signal in a well to which no test substance was added

SK-BR-3 cells = assay: Measurement of cell growth inhibition (crystal violet staining); assay type: cell-based; settings: Homo sapiens, 72 hours culture with test substance
Protocol: Cell growth was measured by a crystal violet staining method. […] The cells were cultured in a 5% CO2 incubator at 37° C. for 24 hours, and then test substances were added to the plate, followed by culturing for further 72 hours. […] The plate was left to stand at room temperature for 20 minutes for staining the cells. The plate was washed with water and dried, and 100 μL of a mixed solution of 0.05 M NaH2PO4 and ethanol (mixture in equal amounts) was added to each well. The absorbance at 540 nm was measured with a microplate reader (MTP-450, Corona Electric Co., Ltd.) as an index of the number of cells in each well. The inhibition rate (%) of cell growth by a compound of the present invention was determined by the following equation using the absorbance of a drug-untreated group (control) as a control. […] Inhibition rate (%)=(C−T)/C×100 T: absorbance in a well to which a test substance was added C: absorbance in a well to which no test substance was added

Row | IC50 [1] [µM] | IC50 (SK-BR-3 cells) [µM] | Structure (SMILES)
1 | > 100 |  | COc1ccc2ccn(-c3ccc(C(N)=O)c(NC4CCC(O)CC4)c3)c2c1 (stereo not shown) [Comparative Example 1, reference compound]
2 | > 10 |  | COc1cc2ccn(-c3ccc(C#N)c(Nc4ccccc4)c3)c2cc1OC [Comparative Example 3, reference compound]
3 | > 10 | > 10 | COc1cc2ccn(-c3ccc(C(N)=O)c(Nc4ccccc4)c3)c2cc1OC [Comparative Example 4, reference compound]
4 | > 100 | > 10 | COc1ccc2c(c1)cc(C)n2-c1ccc(C(N)=O)c(Nc2ccccc2)c1 [Comparative Example 5, reference compound]
5 | > 100 |  | NC(=O)c1ccc(-n2ccc3ccccc32)c(Cl)c1 [Comparative Example 6, reference compound]
6 | 0.74 | 0.56 | CC(C)c1nn(-c2ccc(C(N)=O)cc2Cl)c2cccc(-n3cnc(-c4cccnc4)c3)c12 [Example 3, 3-Chloro-4-(3-isopropyl-4-(4-(pyridin-3-yl)-1H-imidazol-1-yl)-1H-indazol-1-yl)benzamide]
7 | 0.16 | 0.14 | Cc1cc(C(N)=O)ccc1-n1nc(C(C)C)c2c(-n3cnc(-c4cccnc4)c3)cccc21 [Example 4, 4-(3-Isopropyl-4-(4-(pyridin-3-yl)-1H-imidazol-1-yl)-1H-indazol-1-yl)-3-methylbenzamide]
8 | 0.24 | 0.27 | CC(C)c1nn(-c2ccc(C(N)=O)cc2Cl)c2cccc(-n3cnc(-c4cnn(C)c4)c3)c12 [Example 5, 3-Chloro-4-(3-isopropyl-4-(4-(1-methyl-1H-pyrazol-4-yl)-1H-imidazol-1-yl)-1H-indazol-1-yl)benzamide]
9 | 0.37 | 1.19 | CC(C)c1nn(-c2ccc(C(N)=O)nc2)c2cccc(-n3cnc(-c4cnn(C)c4)c3)c12 [Example 7, 5-(3-Isopropyl-4-(4-(1-methyl-1H-pyrazol-4-yl)-1H-imidazol-1-yl)-1H-indazol-1-yl)-2-pyridinecarboxyamide]
10 | 0.25 | 0.1 | CC(C)Nc1cc(C(N)=O)ccc1-n1nc(C(C)C)c2c(-n3cnc(-c4cccnc4)c3)cccc21 [Example 10, 4-(3-Isopropyl-4-(4-(pyridin-3-yl)-1H-imidazol-1-yl)-1H-indazol-1-yl)-3-(isopropylamino)benzamide]
11 | 0.3 | 0.08 | CC(C)c1nn(-c2ccc(C(N)=O)cc2NC2CCC2)c2cccc(-n3cnc(-c4cccnc4)c3)c12 [Example 11, 3-(Cyclobutylamino)-4-(3-isopropyl-4-(4-(pyridin-3-yl)-1H-imidazol-1-yl)-1H-indazol-1-yl)benzamide]
12 | 0.12 | 0.06 | CC(C)Nc1cc(C(N)=O)ccc1-n1nc(C(C)C)c2c(-n3cnc(-c4cnn(C)c4)c3)cccc21 [Example 12, 4-(3-Isopropyl-4-(4-(1-methyl-1H-pyrazol-4-yl)-1H-imidazol-1-yl)-1H-indazol-1-yl)-3-(isopropylamino)benzamide]
13 | 0.2 | 0.06 | CC(C)c1nn(-c2ccc(C(N)=O)cc2NC2CCC2)c2cccc(-n3cnc(-c4cnn(C)c4)c3)c12 [Example 13, 3-(Cyclobutylamino)-4-(3-Isopropyl-4-(4-(1-methyl-1H-pyrazol-4-yl)-1H-imidazol-1-yl)-1H-indazol-1-yl)benzamide]
14 | 0.27 | 0.01 | Cn1cc(-c2cn(-c3cccc4c3c(C(F)(F)F)nn4-c3ccc(C(N)=O)c(NC(C)(C)C)c3)cn2)cn1 [Example 14, 2-(Tert-butylamino)-4-(4-(4-(1-methyl-1H-pyrazol-4-yl)-1H-imidazol-1-yl)-3-(trifluoromethyl)-1H-indazol-1-yl)benzamide]
15 | 0.23 | 0.02 | CCNc1cc(-n2nc(C(F)(F)F)c3c(-n4cnc(-c5cnn(C)c5)c4)cccc32)ccc1C(N)=O [Example 15, 2-(Ethylamino)-4-(4-(4-(1-methyl-1H-pyrazol-4-yl)-1H-imidazol-1-yl)-3-(trifluoromethyl)-1H-indazol-1-yl)benzamide]
16 | 0.29 | 0.03 | CC(C)(C)Nc1cc(-n2nc(C(F)(F)F)c3c(-n4cnc(-c5cccnc5)c4)cccc32)ccc1C(N)=O [Example 16, 2-(Tert-butylamino)-4-(4-(4-(pyridin-3-yl)-1H-imidazol-1-yl)-3-(trifluoromethyl)-1H-indazol-1-yl)benzamide]
17 | 0.49 | 0.3 | Cc1cc(C(N)=O)ccc1-n1nc(C(F)(F)F)c2c(-n3cnc(-c4cccnc4)c3)cccc21 [Example 17, 3-Methyl-4-(4-(4-(pyridin-3-yl)-1H-imidazol-1-yl)-3-(trifluoromethyl)-1H-indazol-1-yl)benzamide]
18 | 0.09 | 0.05 | CCc1cc(C(N)=O)ccc1-n1nc(C(F)(F)F)c2c(-n3cnc(-c4cnn(C)c4)c3)cccc21 [Example 18, 3-Ethyl-4-(4-(4-(1-methyl-1H-pyrazol-4-yl)-1H-imidazol-1-yl)-3-(trifluoromethyl)-1H-indazol-1-yl)benzamide]
19 | 0.17 | 0.1 | CCc1cc(C(N)=O)ccc1-n1nc(C(F)(F)F)c2c(-n3cnc(-c4cccnc4)c3)cccc21 [Example 19, 3-Ethyl-4-(4-(4-(pyridin-3-yl)-1H-imidazol-1-yl)-3-(trifluoromethyl)-1H-indazol-1-yl)benzamide]
20 | 0.14 | 0.09 | CC(C)Nc1cc(C(N)=O)ccc1-n1nc(C(F)(F)F)c2c(-n3cnc(-c4cnn(C)c4)c3)cccc21 [Example 20, 3-(Isopropylamino)-4-(4-(4-(1-methyl-1H-pyrazol-4-yl)-1H-imidazol-1-yl)-3-(trifluoromethyl)-1H-indazol-1-yl)benzamide]
21 | 0.15 | 0.07 | Cn1cc(-c2cn(-c3cccc4c3c(C(F)(F)F)nn4-c3ccc(C(N)=O)cc3NC3CCC3)cn2)cn1 [Example 21, 3-(Cyclobutylamino)-4-(4-(4-(1-methyl-1H-pyrazol-4-yl)-1H-imidazol-1-yl)-3-(trifluoromethyl)-1H-indazol-1-yl)benzamide]
22 | 0.14 | 0.12 | CC(C)Nc1cc(C(N)=O)ccc1-n1nc(C(F)(F)F)c2c(-n3cnc(-c4cccnc4)c3)cccc21 [Example 22, 3-(Isopropylamino)-4-(4-(4-(pyridin-3-yl)-1H-imidazol-1-yl)-3-(trifluoromethyl)-1H-indazol-1-yl)benzamide]
23 | 0.28 | 0.17 | NC(=O)c1ccc(-n2nc(C(F)(F)F)c3c(-n4cnc(-c5cccnc5)c4)cccc32)c(NC2CCC2)c1 [Example 23, 3-(Cyclobutylamino)-4-(4-(4-(pyridin-3-yl)-1H-imidazol-1-yl)-3-(trifluoromethyl)-1H-indazol-1-yl)benzamide]
24 | 0.08 | 0.13 | Cn1cc(-c2cn(-c3cccc4c3c(C(F)(F)F)nn4-c3ccc(C(N)=O)cc3N)cn2)cn1 [Example 24, 3-Amino-4-(4-(4-(1-methyl-1H-pyrazol-4-yl)-1H-imidazol-1-yl)-3-(trifluoromethyl)-1H-indazol-1-yl)benzamide]
25 | 0.1 | 0.17 | NC(=O)c1ccc(-n2nc(C(F)(F)F)c3c(-n4cnc(-c5cccnc5)c4)cccc32)c(N)c1 [Example 25, 3-Amino-4-(4-(4-(pyridin-3-yl)-1H-imidazol-1-yl)-3-(trifluoromethyl)-1H-indazol-1-yl)benzamide]
26 | 0.19 | 0.05 | Cc1cn(-c2ccc(C(N)=O)c(NC(C)(C)C)c2)c2cccc(-n3cnc(-c4cnn(C)c4)c3)c12 [Example 46, 2-(Tert-butylamino)-4-{3-methyl-4-(4-(1-methyl-1H-pyrazolo-4-yl)-1H-imidazolo-1-yl)-1H-indol-1-yl}benzamide]
27 | 0.43 | 0.12 | Cc1cn(-c2ccc(C(N)=O)c(NC(C)(C)C)c2)c2cccc(-n3cnc(-c4cccnc4)c3)c12 [Example 47, 2-(Tert-butylamino)-4-{3-methyl-4-(4-(pyridin-3-yl)-1H-imidazolo-1-yl)-1H-indol-1-yl}benzamide]

Row | Structure (SMILES) | IC50 [1] [µM] | IC50 (SK-BR-3 cells) [µM]
28 | COc1cccc2c1ccn2-c1ccc(C(N)=O)c(NC2CCC(O)CC2)c1 (stereo not shown) [Comparative Example 2, reference compound] | > 100 | 
